Laboratory results taken from patent publication US9302999B2, “Substituted triazoles as herbicides” (E. I. DU PONT DE NEMOURS AND COMPANY, priority 2012, dated 2016).
Read-outs that look alike come from different tables or passages of the source.

How the values were obtained:
Format in all cases: in vivo
[1] = tested on: pigweed (Amaranthus retroflexus); assay: Test D pre-/postemergence: pigweed
Excerpt: (§1) Seeds of plant species selected from bluegrass (annual bluegrass, Poa annua), blackgrass (Alopecurus myosuroides), canarygrass (Phalaris minor), chickweed (common chickweed, Stellaria media), galium (catchweed bedstraw, Galium aparine), bromegrass, downy (downy bromegrass, Bromus tectorum), field poppy (Papaver rhoeas), field violet (Viola arvensis), foxtail, green (green foxtail, Setaria viridis), deadnettle (henbit deadnettle, Lamium amplexicaule), ryegrass, Italian (Italian ryegrass, Lolium multiflorum), kochia (Kochia scoparia), lambsquarters (Chenopodium album), oilseed rape (Brassica napus), pigweed (Amaranthus retroflexus), Russian thistle (Salsola iberica), chamomile (scentless chamomile, Matricaria inodora), speedwell (bird's-eye speedwell, Veronica persica), barley, spring (spring barley, Hordeum vulgare), wheat, spring (spring wheat, Triticum aestivum), buckwheat, wild (wild buckwheat, Polygonum convolvulus), mustard, wild (wild mustard, Sinapis arvensis), oat, wild (wild oat, Avena fatua), radish, wild (wild radish, Raphanus raphanistrum), windgrass (Apera spica-venti), barley, winter (winter barley, Hordeum vulgare), and wheat, winter (winter wheat, Triticum aestivum) were planted into a silt loam soil and treated preemergence with test chemicals formulated in a non-phytotoxic solvent mixture which included a surfactant. At the same time, these same crop and weed species were planted in pots containing the planting medium comprising spaghnum peat moss, vermiculite, wetting agent and starter nutrients and treated with postemergence applications of the test chemicals formulated in the same manner. Plants ranged in height from 2 to 18 cm (1- to 4-leaf stage).
(§2) Treated plants and controls were maintained in a controlled growth environment for 14 to 21 days after which time all species were compared to controls and visually evaluated. Plant response ratings, summarized in Table D, are based on a scale of 0 to 100 where 0 is no effect and 100 is complete control. A dash (-) response means no test result.

[2] = tested on: wheat, winter (winter wheat, Triticum aestivum); assay: Test D pre-/postemergence: wheat, winter
Excerpt: as §1, §2

[3] = tested on: field poppy (Papaver rhoeas); assay: Test D pre-/postemergence: field poppy
Excerpt: as §1, §2

[4] = tested on: ducksalad (Heteranthera limosa); assay: Test C flooded paddy test: ducksalad; details: scale 0 to 100 (0 no effect, 100 complete control); for pest or weed control at 125 g/ha / pest or weed control at 250 g/ha / pest or weed control at 62 g/ha: Heteranthera limosa, read-out: Plant response rating, Ducksalad
How it was run: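 Greenhouse plants treated at the 2-leaf stage by dosing the flood water (3 cm depth, maintained) were compared with controls after 13 to 15 days and rated 0 to 100, where 100 means complete control; a dash marks no test result.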

[5] = tested on: galium (catchweed bedstraw, Galium aparine); assay: Test D pre-/postemergence: galium; details: for Plant response rating, Galium: scale 0 to 100
Excerpt: as §1, §2

[6] = Postemergence, 31 g ai/ha, scale 0 to 100 (0 no effect, 100 complete control)
[7] = Postemergence, 62 g ai/ha, scale 0 to 100 (0 no effect, 100 complete control)
[8] = Postemergence, 125 g ai/ha, scale 0 to 100, 0 no effect, 100 complete control
[9] = Postemergence, 250 g ai/ha, scale 0 to 100 (0 no effect, 100 complete control)
[10] = Postemergence, 16 g ai/ha, scale 0 to 100
[11] = Flood (flooded paddy test), 62 g ai/ha, visual rating after 13 to 15 days
[12] = Flood (flooded paddy test), 125 g ai/ha, visual rating after 13 to 15 days
[13] = Flood (flooded paddy test), 250 g ai/ha, visual rating after 13 to 15 days
[14] = Preemergence, 31 g ai/ha, scale 0 to 100, 0 no effect, 100 complete control
[15] = Preemergence, 62 g ai/ha, scale 0 to 100
[16] = Preemergence, 125 g ai/ha, scale 0 to 100
[17] = Preemergence, 250 g ai/ha, scale 0 to 100
[18] = Preemergence, 16 g ai/ha, scale 0 to 100, 0 no effect, 100 complete control

SMILES	Plant response rating: Pigweed [1, 6]	Plant response rating: Pigweed [1, 7]	Plant response rating: Pigweed [1, 8]	Plant response rating: Pigweed [1, 9]	Plant response rating, Pigweed [1, 10]	Plant response rating: Wheat, Winter [2, 6]	Plant response rating: Wheat, Winter [2, 7]	Plant response rating: Wheat, Winter [2, 8]	Plant response rating: Wheat, Winter [2, 9]	Plant response rating, Wheat, Winter [2, 10]	Plant response rating: Field Poppy [3, 6]	Plant response rating: Field Poppy [3, 7]	Plant response rating: Field Poppy [3, 8]	Plant response rating: Field Poppy [3, 9]	Plant response rating, Field Poppy [3, 10]	Plant response rating: Galium [5, 6]	Plant response rating: Galium [5, 7]	Plant response rating: Galium [5, 8]	Plant response rating: Galium [5, 9]	pest or weed control at 250 g/ha [4, 13]	further results
Cc1nn(-c2ccc(C(F)(F)F)cn2)nc1Oc1ccnc(C(F)(F)F)c1 [Compound 23]	50	80	95	100	50	5	10	15	15	0	70	90	100	100	75	30	50	70	90		Plant response rating, Ducksalad [4, 11]: 60; Plant response rating, Ducksalad [4, 12]: 60; Plant response rating, Ducksalad [4, 13]: 85; Plant response rating, Ducksalad ([4]; Flood, 31 g ai/ha): 50; Plant response rating, Galium ([5]; Postemergence, 16 g ai/ha): 25
COCc1nn(-c2ccc(C(F)(F)F)cc2)nc1Oc1cccc(OC(F)(F)F)c1 [Compound 115, 4-(methoxymethyl)-5-[3-(trifluoromethoxy)phenoxy]-2-[4-(trifluoromethyl)phenyl]-2H-1,2,3-triazole]																				20%	pest or weed control at 125 g/ha [4, 12]: 0%; pest or weed control at 62 g/ha ([4]; Flood, 62 g ai/ha): 0%
FCc1nn(-c2ccc(C(F)(F)F)cc2)nc1Oc1cccc(OC(F)(F)F)c1 [Compound 116, 4-(fluoromethyl)-5-[3-(trifluoromethoxy)phenoxy]-2-[4-(trifluoromethyl)phenyl]-2H-1,2,3-triazole]																				50%	pest or weed control at 125 g/ha [4, 12]: 30%; pest or weed control at 62 g/ha ([4]; Flood, 62 g ai/ha): 0%
FC(F)(F)COc1nn(-c2ccc(C(F)(F)F)cc2)nc1Cc1ccnc(C(F)(F)F)c1 [Compound 14, 4-[[5-(2,2,2-trifluoroethoxy)-2-[4-(trifluoromethyl)phenyl]-2H-1,2,3-triazol-4-yl]methyl]-2-(trifluoromethyl)pyridine]	100	100	100	100		5	5	15	25		100	100	100	100		45	55	55	70	60%	Plant response rating, Pigweed [1, 14]: 20; Plant response rating, Pigweed [1, 15]: 70; Plant response rating, Pigweed [1, 16]: 90; Plant response rating, Pigweed [1, 17]: 100; Plant response rating, Wheat, Winter [2, 14]: 0; Plant response rating, Wheat, Winter [2, 15]: 0; Plant response rating, Wheat, Winter [2, 16]: 10; Plant response rating, Wheat, Winter [2, 17]: 20; pest or weed control at 62 g/ha [4, 11]: 40%; Plant response rating, Galium ([5]; Preemergence, 62 g ai/ha): 0; Plant response rating, Galium ([5]; Preemergence, 125 g ai/ha): 100; Plant response rating, Galium ([5]; Preemergence, 250 g ai/ha): 100
Cc1nn(-c2ccc(C(F)(F)F)cc2)nc1Oc1csc(C(F)(F)F)c1 [Compound 1, 4-methyl-2-[4-(trifluoromethyl)phenyl]-5-[[5-(trifluoromethyl)-3-thienyl]oxy]-2H-1,2,3-triazole]																				0%	pest or weed control at 62 g/ha [4, 11]: 0%
COc1nn(-c2ccc(C(F)(F)F)cc2)nc1Cc1ccnc(C(F)(F)F)c1 [Compound 15, 4-[[5-methoxy-2-[4-(trifluoromethyl)phenyl]-2H-1,2,3-triazol-4-yl]methyl]-2-(trifluoromethyl)pyridine]	80	80	100	100	80	10	15	25	35	5	100	100	100	100	100	55	70	100	100	60%	Plant response rating, Pigweed [1, 14]: 20; Plant response rating, Pigweed [1, 15]: 70; Plant response rating, Pigweed [1, 16]: 98; Plant response rating, Pigweed [1, 17]: 100; Plant response rating, Wheat, Winter [2, 14]: 0; Plant response rating, Wheat, Winter [2, 15]: 0; Plant response rating, Wheat, Winter [2, 16]: 0; Plant response rating, Wheat, Winter [2, 17]: 5; pest or weed control at 62 g/ha [4, 11]: 40%; Plant response rating, Galium ([5]; Postemergence, 16 g ai/ha): 50; Plant response rating, Galium ([5]; Preemergence, 62 g ai/ha): 30; Plant response rating, Galium ([5]; Preemergence, 125 g ai/ha): 100; Plant response rating, Galium ([5]; Preemergence, 250 g ai/ha): 100
COc1nn(-c2ccc(C(F)(F)F)cc2)nc1Cc1ccnc(C(F)F)c1 [Compound 138]	95	95	100	100	90	20	20	20	25	10	90	90	100	100	80	75	80	90	100		Plant response rating, Galium ([5]; Postemergence, 16 g ai/ha): 60
Cc1nn(-c2ccc(F)c(C(F)(F)F)c2)nc1Cc1ccnc(C(F)(F)F)c1 [Compound 156]	90	90	95		85	15	15	20		10	100	100	100		85	75	75	80			Plant response rating, Pigweed [1, 18]: 50; Plant response rating, Pigweed [1, 14]: 85; Plant response rating, Pigweed [1, 15]: 100; Plant response rating, Pigweed [1, 16]: 100; Plant response rating, Wheat, Winter [2, 18]: 0; Plant response rating, Wheat, Winter [2, 14]: 0; Plant response rating, Wheat, Winter [2, 15]: 0; Plant response rating, Wheat, Winter [2, 16]: 5; Plant response rating, Field Poppy [3, 18]: 85; Plant response rating, Field Poppy [3, 14]: 100; Plant response rating, Field Poppy [3, 15]: 95; Plant response rating, Field Poppy [3, 16]: 100; Plant response rating, Galium ([5]; Postemergence, 16 g ai/ha): 70
